Consider 6 compounds from patent US7935848B2, “Butone derivatives useful as cooling agents” (Givaudan S.A., priority 2007, dated 2011).

Type in all cases: in vivo, human
Assay [1] is described as follows: Application in chewing gum: cooling perception after chewing. To be noted: for Cooling perception rated higher than the control: chewing gum with 0.05 g compound plus 0.50 g peppermint oil versus peppermint oil control; for Cooling sensation felt by the panelist in all areas of the mouth: chewing gum with 0.50 g peppermint oil; for Cooling sensation felt by the panelist in all areas of the mouth / Duration of cooling perception: test compound 0.05 g, 2 g piece chewed 20 min; for Duration of cooling perception: chewing gum, 0.50 g peppermint oil. The method, then:
The gum base and half of the sorbitol were mixed, maltitol syrup was added and the mixed with the gum mass. The rest of powder (rest of sorbitol, mannitol, potassium acesulfame, aspartame) were added and mixed for about 1 minute, when glycerine was added and the gum mass was mix for about 5 minutes, to form the blank chewing gum mass. Peppermint oil was worked into the mass and a piece of the resulting gum (2 g) is chewed by the panelist for 20 min and spat out. […] The cooling perception lasts for 50 minutes.
The chemical and peppermint oil was worked into the blank chewing gum mass from Example 12 a) and a piece of the resulting gum (2 g) is chewed by the panelist for 20 minutes and spat out.
The chemical and peppermint oil was worked into the blank chewing gum mass from Example 12a) and a piece of the resulting gum (2 g) is chewed by the panelist for 20 minutes and spat out.

A short description of assay [2]: Cooling intensity: panelists taste aqueous solutions, compared with menthol at 2 ppm. To be noted: tasted by small group of panelists.
Assay [3] in a line: Application in toothpaste: cooling perception after brushing. To be noted: for Cooling sensation felt by the panelist in all areas of the mouth: opaque toothgel with 0.50 g peppermint oil and 0.30 g saccharin, teeth brushed, mouth rinsed; for Cooling sensation felt by the panelist in all areas of the mouth / Duration of cooling perception: test compound 0.05 g per 100 g; for Cooling perception rating versus control: toothgel with 0.05 g compound plus 0.50 g peppermint oil versus peppermint oil control; for Duration of cooling perception: toothgel, 0.50 g peppermint oil. The method, then: The chemicals are mixed in the toothgel, a piece of toothgel is put on a toothbrush and a panelist's teeth are brushed. The mouth is rinsed with water and the water is spat out. […] The cooling perception lasts for 40 minutes.
The chemicals are mixed in the toothgel, a piece of toothgel is put on a toothbrush and a panelist's teeth are brushed. The mouth is rinsed with water and the water is spat out.

Take `CCCC(=O)[C@@H]1C[C@H](C)CC[C@H]1C(C)C` [Example 1, 1-((1R,2S,5R)-2-isopropyl-5-methylcyclohexyl)butan-1-one]: in assay [1], the “Cooling perception rated higher than the control” value turned out to be 49%, the “Cooling sensation felt by the panelist in all areas of the mouth” value (“Cooling sensation felt by the panelist” for short) is listed as “cooling sensation” and the “Duration of cooling perception” value is “over 60 minutes”. In assay [2], the “Concentration with cooling intensity similar to or slightly higher than a solution of menthol at 2 ppm” value (“Concentration” below) amounted to 2.0 ppm. In assay [3], the “Cooling sensation felt by the panelist” value is recorded as “intense cooling sensation”, the “Cooling perception rating versus control” value was “higher then the control” and the “Duration of cooling perception” value was 72 min.
As to `CC(C)[C@@H]1CC[C@@H](C)C[C@H]1C(=O)CCCc1ccccc1` [Example 2, 1-((1R,2S,5R)-2-isopropyl-5-methylcyclohexyl)-4-phenylbutan-1-one], in assay [1], the “Cooling perception rated higher than the control” value was 49%, the “Cooling sensation felt by the panelist” value is given as “cooling sensation” and the “Duration of cooling perception” value was “over 60 minutes”. Also, the “Concentration” value in assay [2] was 2.0 ppm. Moreover, in assay [3], the “Cooling sensation felt by the panelist” value is “intense cooling sensation”, the “Cooling perception rating versus control” value is on record as “higher then the control” and the “Duration of cooling perception” value is 70 min.
Regarding `CC(C)[C@@H]1CC[C@@H](C)C[C@H]1C(=O)CCCc1ccccn1` [Example 3, 1-((1R,2S,5R)-2-isopropyl-5-methylcyclohexyl)-4-(pyridin-2-yl)butan-1-one], the “Concentration” value in assay [2] was found to be 0.01 ppm.
On the same count and under the same terms, the figure for `CC(C)C(C)(C(=O)CCCc1ccccc1)C(C)C` [Example 4, 5-isopropyl-5,6-dimethyl-1-phenylheptan-4-one] is 3.0 ppm; for `CCNC(=O)C1CC(C)CCC1C(C)C` (stereo not drawn) [WS-3, N-ethyl p-menthanecarboxamide, reference compound] it is 1.5 ppm; for `CC(C)[C@@H]1CC[C@@H](C)C[C@H]1O` [l-Menthol, reference compound] it is 2.0 ppm.
